Measured values: patent US11285156B2, “Substituted piperazines as KRAS G12C inhibitors” (Amgen Inc., priority 2018, dated 2022)
Where two headings read alike, the source gives them in different places.

What was measured:
[1] = test system: Phosphorylation of ERK1/2 in A549 cells; test: Phospho-ERK1/2 MSD assay in A549 cells; assay type: cell-based; conditions: read-out: p-ERK IC50 (2 h, A549; μM), 2 h compound treatment, A549 cells, EGF stimulated
How it was run: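 MSD electrochemiluminescent read-out of phospho-ERK1/2 in RIPA lysates. Cells in RPMI 1640 with 10% FBS received titrated compound for 2 or 4 h, then 10 ng/mL EGF for 10 min before ice-cold PBS wash and lysis.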

[2] = molecular target: GDP-bound KRAS protein (aa 1-169), containing both G12C and C118A amino acid substitutions (Homo sapiens (Human), UniProt P01116, C118A/G12C); test: Coupled nucleotide exchange assay (SOS-mediated nucleotide exchange, AlphaScreen); assay type: biochemical; conditions: 5 min compound pre-incubation; for IC50: read-out: Coupled exchange IC50 (5 min; μM)
GDP-bound KRAS protein (aa 1-169), containing both G12C and C118A amino acid substitutions, sequence (P01116 other isoform, or with tags, fused parts or gaps G12C/C118A): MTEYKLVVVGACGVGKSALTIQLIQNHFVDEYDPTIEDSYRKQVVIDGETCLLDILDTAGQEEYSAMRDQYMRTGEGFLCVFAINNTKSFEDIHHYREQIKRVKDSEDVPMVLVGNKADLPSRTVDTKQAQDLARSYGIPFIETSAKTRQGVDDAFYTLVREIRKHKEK

[3] = test system: Phosphorylation of ERK1/2 in MIA PaCa-2 cells; test: Phospho-ERK1/2 MSD assay in MIA PaCa-2 cells; assay type: cell-based; conditions: read-out: p-ERK IC50 (2 h, MiaPaCa-2; μM), 2 h compound treatment, MIA PaCa-2 cells, EGF stimulated
How it was run: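 Phospho-ERK1/2 measured by MSD electrochemiluminescence kit in RIPA lysates of MIA PaCa-2 cells. Cells were treated with compound titrations for 2 or 4 h at 37 °C, 5% CO2, followed by a 10 min pulse of 10 ng/mL EGF.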

Structure (SMILES)	IC50 ([1]; Homo sapiens, A549, 2 h)	IC50 [2]	IC50 ([3]; Homo sapiens, MIA PaCa-2, 2 h)	IC50 [1]	IC50 [3]	Coupled exchange IC50 (5 min; μM) [2]
C=CC(=O)N1C[C@H](C)N(c2nc(=O)n(-c3c(C)ccnc3C(C)C)c3nc(-c4c(F)cccc4NC(=O)C4CC4)c(Cl)cc23)C[C@H]1C (atropisomer, axis not shown; (M)) [Example 129-9, (M)-N-[2-[6-Chloro-4-[(2S,5R)-2,5-dimethyl-4-prop-2-enoyl-piperazin-1-yl]-1-(2-isopropyl-4-methyl-3-pyridyl)-2-oxo-pyrido[2,3-d]pyrimidin-7-yl]-3-fluoro-phenyl]cyclopropanecarboxamide]	> 7.5 µM	0.008 µM	0.048 µM			
C=CC(=O)N1C[C@H](C)N(c2nc(=O)n(-c3c(C)ccnc3C(C)C)c3nc(-c4c(F)cccc4NC(=O)C(F)F)c(Cl)cc23)C[C@H]1C (atropisomer, axis not shown; (M)) [Example 129-10, (M)-N-[2-[6-Chloro-4-[(2S,5R)-2,5-dimethyl-4-prop-2-enoyl-piperazin-1-yl]-1-(2-isopropyl-4-methyl-3-pyridyl)-2-oxo-pyrido[2,3-d]pyrimidin-7-yl]-3-fluoro-phenyl]-2,2-difluoro-acetamide]	> 7.5 µM	0.041 µM	0.049 µM			
C=CC(=O)N1C[C@H](C)N(c2nc(=O)n(-c3c(C)ccnc3C(C)C)c3nc(-c4ccccc4NC(=O)C(F)F)c(Cl)cc23)C[C@H]1C (atropisomer, axis not shown; (M)) [Example 129-11, (M)-N-[2-[6-Chloro-4-[(2S,5R)-2,5-dimethyl-4-prop-2-enoyl-piperazin-1-yl]-1-(2-isopropyl-4-methyl-3-pyridyl)-2-oxo-pyrido[2,3-d]pyrimidin-7-yl]phenyl]-2,2-difluoro-acetamide]	> 7.5 µM	0.152 µM	0.247 µM			
C=CC(=O)N1C[C@H](C)N(c2nc(=O)n(-c3c(C)ccnc3C(C)C)c3nc(-c4cc(O)cc5ccccc45)c(Cl)cc23)C[C@H]1C (atropisomer, axis not shown; (M)) [Example 132-1, (M)-6-Chloro-4-[(2S,5R)-2,5-dimethyl-4-prop-2-enoyl-piperazin-1-yl]-7-(3-hydroxy-1-naphthyl)-1-(2-isopropyl-4-methyl-3-pyridyl)pyrido[2,3-d]pyrimidin-2-one]		0.053 µM		> 7.5 µM	0.46 µM	
C=CC(=O)N1CCN(c2nc(=O)n(-c3c(C)ccnc3C(C)C)c3nc(-c4c(N)cccc4F)c(Cl)cc23)CC1CC#N (atropisomer, axis not shown; (M)) [Example 144-1, (M)-2-[4-[7-(2-Amino-6-fluoro-phenyl)-6-chloro-1-(2-isopropyl-4-methyl-3-pyridyl)-2-oxo-pyrido[2,3-d]pyrimidin-4-yl]-1-prop-2-enoyl-piperazin-2-yl]acetonitrile]		0.166 µM		> 7.5 µM	0.23 µM	
C=CC(=O)N1CCN(c2nc(=O)n(-c3c(C)ccnc3C(C)C)c3nc(Cl)c(Cl)cc23)CC1CC#N (atropisomer, axis not shown; (M)) [Example 144-2-2, (M)-2-[4-[6,7-Dichloro-1-(2-isopropyl-4-methyl-3-pyridyl)-2-oxo-pyrido[2,3-d]pyrimidin-4-yl]-1-prop-2-enoyl-piperazin-2-yl]acetonitrile]	4 µM	9.13 µM	3.1 µM			
C=CC(=O)N1CCN(c2nc(=O)n(-c3c(C)ccnc3C(C)C)c3nc(-c4c(O)cccc4F)c(Cl)cc23)CC1CC#N (atropisomer, axis not shown; (M)) [Example 144-3, (M)-2-[4-[6-Chloro-7-(2-fluoro-6-hydroxy-phenyl)-1-(2-isopropyl-4-methyl-3-pyridyl)-2-oxo-pyrido[2,3-d]pyrimidin-4-yl]-1-prop-2-enoyl-piperazin-2-yl]acetonitrile]	> 7.5 µM	0.166 µM	2.41 µM			
C=CC(=O)N1CCN(c2nc(=O)n(-c3c(C)ccnc3C(C)C)c3nc(-c4ccccc4F)c(Cl)cc23)CC1CC#N (atropisomer, axis not shown; (M)) [Example 145-2, (M)-2-[4-[6-Chloro-7-(2-fluorophenyl)-1-(2-isopropyl-4-methyl-3-pyridyl)-2-oxo-pyrido[2,3-d]pyrimidin-4-yl]-1-prop-2-enoyl-piperazin-2-yl]acetonitrile]	> 7.5 µM	0.344 µM			1.68 µM	
C=CC(=O)N1CCN(c2nc(=O)n(-c3c(C)ccnc3C(C)C)c3nc(-c4ccccc4F)c(Cl)cc23)CC1CC#N (atropisomer, axis not shown; (M)) [Example 145-2-1, (M)-2-[4-[6-Chloro-7-(2-fluorophenyl)-1-(2-isopropyl-4-methyl-3-pyridyl)-2-oxo-pyrido[2,3-d]pyrimidin-4-yl]-1-prop-2-enoyl-piperazin-2-yl]acetonitrile]		0.294 µM		> 7.5 µM	0.356 µM	
C=CC(=O)N1CCN(c2nc(=O)n(-c3c(C)ccnc3C(C)C)c3nc(-c4ccccc4F)c(Cl)cc23)CC1CC#N (atropisomer, axis not shown; (M)) [Example 145-2-2, (M)-2-[4-[6-Chloro-7-(2-fluorophenyl)-1-(2-isopropyl-4-methyl-3-pyridyl)-2-oxo-pyrido[2,3-d]pyrimidin-4-yl]-1-prop-2-enoyl-piperazin-2-yl]acetonitrile]		0.238 µM		> 7.5 µM	0.213 µM	
C=CC(=O)N1C[C@H](C)N(c2nc(=O)n3c4nc(c(Cl)cc24)-c2ccccc2C/C=C/Cc2cccc(C(C)C)c2-3)C[C@H]1C (atropisomer, axis not shown; (M)) [Example 146-2, (M)-(9Z)-19-Chloro-22-((2S,5R)-2,5-dimethyl-4-(2-propenoyl)-1-piperazinyl)-3-(2-propanyl)-1,23,26-triazapentacyclo[16.6.2.0~2,7~.0~12,17~.0~21,25~]hexacosa-2,4,6,9,12,14,16,18,20,22,25-undecaen-24-one, (M)-19-chloro-22-((2S,5R)-2,5-dimethyl-4-(2-propenoyl)-1-piperazinyl)-3-(2-propanyl)-1,23,26-triazapentacyclo[16.6.2.0~2,7~.0~12,17~.0~21,25~]hexacosa-2,4,6,9,12,14,16,18,20,22,25-undecaen-24-one]	6.51 µM	0.028 µM	0.038 µM			
C=CC(=O)N1CCN(c2nc(=O)n(-c3c(C)ccnc3C(C)C)c3nc(-c4ccccc4F)c(Cl)cc23)C2CC21 (atropisomer, axis not shown; (M)) [Example 222, (M)-4-(5-Acryloyl-2,5-diazabicyclo[4.1.0]heptan-2-yl)-6-chloro-7-(2-fluorophenyl)-1-(2-isopropyl-4-methylpyridin-3-yl)pyrido[2,3-d]pyrimidin-2(1H)-one]		0.705 µM		2.71 µM	0.057 µM	
C=CC(=O)N1CCN(c2nc(=O)n(-c3c(C)ccnc3C(C)C)c3nc(-c4ccccc4F)c(Cl)cc23)[C@H]2C[C@H]21 (atropisomer, axis not shown; (M)) [Example 222-2, (M)-4-((1S,6R)-5-acryloyl-2,5-diazabicyclo[4.1.0]heptan-2-yl)-6-chloro-7-(2-fluorophenyl)-1-(2-isopropyl-4-methylpyridin-3-yl)pyrido[2,3-d]pyrimidin-2(1H)-one]		0.014 µM		2.52 µM	0.048 µM	
C#Cc1ccc(F)c(-c2nc3c(cc2Cl)c(N2C[C@@H](C)N(C(=O)C=C)C[C@@H]2C)nc(=O)n3-c2c(C)ccnc2C(C)C)c1 (atropisomer, axis not shown; (M)) [Example 226, (M)-6-Chloro-4-[(2S,5R)-2,5-dimethyl-4-prop-2-enoyl-piperazin-1-yl]-7-(5-ethynyl-2-fluoro-phenyl)-1-(2-isopropyl-4-methyl-3-pyridyl)pyrido[2,3-d]pyrimidin-2-one]		0.04 µM		> 7.5 µM	0.063 µM	
C=CC(=O)N1C[C@H](C)N(c2nc(=O)n3c4nc(c(Cl)cc24)-c2ccccc2C/C=C\Cc2ccccc2-3)C[C@H]1C (atropisomer, axis not shown; (P)) [Example 146-3]	> 7.5 µM	7.03 µM			4.26 µM	
C=CC(=O)N1C[C@H](C)N(c2nc(=O)n(-c3c(C)ccnc3C(C)C)c3nc(-c4ccccc4C(C)O)c(Cl)cc23)C[C@H]1C (mixture of isomers) [Example 92-43, (M)-6-Chloro-4-[(2S,5R)-2,5-dimethyl-4-prop-2-enoyl-piperazin-1-yl]-7-[2-[(1RS)-1-hydroxyethyl]phenyl]-1-(2-isopropyl-4-methyl-3-pyridyl)pyrido [2,3-d]pyrimidin-2-one]	> 7.5 µM		0.076 µM			0.054 µM
C=CC(=O)N1C[C@H](C)N(c2nc(=O)n(-c3c(N(C)C)ccnc3C(C)C)c3nc(-c4ccccc4F)c(Cl)cc23)C[C@H]1C (single isomer, unassigned) [Example 55-51-1]		0.298 µM		> 7.5 µM	0.157 µM	
C=CC(=O)N1C[C@H](C)N(c2nc(=O)n(-c3c(N(C)C)ccnc3C(C)C)c3nc(-c4ccccc4F)c(Cl)cc23)C[C@H]1C (single isomer, unassigned) [Example 55-51-2]		0.07 µM		> 7.5 µM	0.037 µM	
